Results on 79 compounds are retold here after the METLIN SMRT retention time set (Domingo-Almenara et al. 2019).

The nature of this data set: gradient 5% acetonitrile 3 min, to 50% in 2 min, to 85% in 15 min, held 3 min, 100 µL/min. The conditions noted are these: column: Zorbax Extend-C18 2.1 x 50 mm; eluents: water / acetonitrile, 0.1% formic acid. The procedure, abridged: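 Each retention time is based on an adduct peak selected computationally and verified by manual inspection. Measurements used HPLC–quadrupole time-of-flight mass spectrometry in positive and negative ionization mode on mixtures of ~100 pure standards. Chromatography ran on a Zorbax Extend-C18 column (2.1 × 50 mm, 1.8 μm) at 100 μL/min with water and acetonitrile, each containing 0.1% formic acid, and dead and dwell volumes of 40 μL and 900 μL.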
Consider `Brc1ccc(OCc2nnc3sc(-c4ccccn4)nn23)cc1`, for which the RP-LC retention time was 960 s.

`Cc1ccc(-c2ncccc2CNS(=O)(=O)c2ccc(C#N)cc2)cc1` gave an RP-LC retention time of 688 s.

`Clc1ccc(Nc2nc(NCCCn3ccnc3)nc3nc[nH]c23)cc1`: the RP-LC retention time is 536 s.

As for `CCOC(=O)CNC(=O)N1CCN(Cc2nc3cccnc3n2-c2ccc(F)cc2)CC1`, the RP-LC retention time stood at 602 s.

With `CCCn1c(CCC(=O)Nc2ccc3c(c2)OCCO3)nc2cccnc21`, the RP-LC retention time is 662 s.

`O=C(CCOc1ccccc1)NCc1ccccc1` yielded an RP-LC retention time of 759 s.

As to `O=C(C1=CN(c2ccc(Cl)cc2)c2ccccc2S1(=O)=O)N1CCCC1`, the RP-LC retention time worked out at 827 s.

In turn, `CN(C)C(=O)c1ccc2c(c1)nc(CN(C)C(=O)Nc1ccc(Br)cc1F)n2C` came in with an RP-LC retention time of 637 s.

Compound `Cc1ccc(CNC(=O)C2(C)CN(S(C)(=O)=O)CC(=O)N2CCc2ccc(Cl)cc2)cc1` (centres undefined) displayed an RP-LC retention time of 961 s.

Turning to `O=C(NC(Cc1ccccc1)c1nc2ccccc2[nH]1)c1cccs1` (centres undefined), the RP-LC retention time turned out to be 607 s.

Consider `O=C(CSc1nccn1-c1cccc(Cl)c1)Nc1ccccc1C(F)(F)F`, for which the RP-LC retention time stood at 591 s.

The compound `Cc1ccc(C(=O)Nc2cnc(-c3cccc(Cl)c3)nc2)s1` yielded an RP-LC retention time of 1140 s.

In the case of `CCN1C(=O)c2cc(C(=O)NCc3ccc(C)cc3)nn2CC1(C)C(=O)NC1CCCC1` (centres undefined), the RP-LC retention time amounted to 766 s.

For `O=C(c1cnccn1)N1CCCCC1c1nc(-c2ccncc2)no1` (centres undefined), the RP-LC retention time turned out to be 661 s.

Consider `CN(CCc1noc(-c2ccc(C(=O)N(C)Cc3ccco3)cc2)n1)C(=O)c1ccccc1`, for which the RP-LC retention time was 817 s.

As for `COc1ccc2c(c1)C=C(C(=O)Nc1cc(OC)c(OC)c(OC)c1)CO2`, the RP-LC retention time was found to be 909 s.

`Cc1noc(C)c1CN1CCC(NC(=O)c2cc(Cl)ccc2F)C1` (centres undefined) showed an RP-LC retention time of 570 s.

Take `O=c1c2sccc2n(Cc2nc(-c3ccc(F)cc3)no2)c(=O)n1Cc1ccccc1`: the RP-LC retention time turned out to be 1030 s.

For `COc1ccc(-c2noc(C3CCCN3C(=O)Nc3ccc(OC)cc3OC)n2)cc1` (centres undefined), the RP-LC retention time came out at 952 s.

`COc1cccc(Cn2nnc(C(=O)O)c2-c2cccc(OC)c2)c1` had an RP-LC retention time of 782 s.

On to `COc1cccc(CNC(=O)CN2CCN(Cc3ccc(F)cc3)C2=O)c1OC`, for which the RP-LC retention time stood at 772 s.

As to `CC1CCN(Cc2csc(N3CCN(C(=O)COc4ccccc4)CC3)n2)CC1`, the RP-LC retention time turned out to be 653 s.

Compound `COCCN1C(=O)c2ccccc2C(C(=O)NCCN2CCCCC2C)C1c1cccs1` (centres undefined) registered an RP-LC retention time of 634 s.

The compound `CCn1ccc2c(cc(C(=O)Nc3ccc4c(c3)OCCO4)n2C)c1=O` gave an RP-LC retention time of 721 s.

The compound `O=C(NCCCn1c(-c2ccncc2)nc2cccnc21)Nc1cccc(C(F)(F)F)c1` came in with an RP-LC retention time of 725 s.

The compound `O=C(C1CC=CCC1)N1CCCC(COCc2ccccc2)C1` (centres undefined) returned an RP-LC retention time of 979 s.

For the compound `O=C(NC1CCN(c2cc(-c3cccs3)[nH]n2)C1)c1ccccc1Cl` (centres undefined), the RP-LC retention time came out at 701 s.

Consider `Cc1ccc(NC(=O)N2C[C@@H](F)C[C@H]2C(=O)N2CCc3ccccc3C2)cc1`, for which the RP-LC retention time was found to be 807 s.

In turn, `O=C1NCCCCCCN(Cc2ccc(F)cc2F)[C@H]2CCC[C@@H]12` yielded an RP-LC retention time of 646 s.

For the compound `O=C(N1[C@H]2CC[C@@H]1c1cnc(-c3ccc(F)cc3)nc1C2)C1(c2ccccc2)CC1`, the RP-LC retention time turned out to be 1070 s.

Compound `Cc1ccc(-c2nc3ccccc3[nH]2)cc1NC(=O)CC(C)C` came in with an RP-LC retention time of 656 s.

Take `CC(C)S(=O)(=O)Nc1ccc2c(c1)CN(C(=O)c1ccco1)CC2`: the RP-LC retention time was 685 s.

`Cc1ccccc1-c1nnc(CSc2nnc(NC(=O)Cc3ccccc3Cl)s2)o1` returned an RP-LC retention time of 977 s.

On to `Cc1sc(C)c(S(=O)(=O)Nc2cccc(Cl)c2)c1-c1cc(C(F)(F)F)on1`, for which the RP-LC retention time was 1190 s.

`Cc1cc(C)c(S(=O)(=O)N2CCC3(CC2)NCCN=C3NCc2ccccc2C)cc1C` registered an RP-LC retention time of 815 s.

The compound `CC1CCN(c2ccc(-c3noc(CCC(=O)N4CCN(C5CCCCC5)CC4)n3)cc2)CC1` came in with an RP-LC retention time of 733 s.

The compound `O=S(=O)(c1cc(-c2cc(C(F)(F)F)on2)cs1)N1CCN(C2CCCCC2)CC1` had an RP-LC retention time of 775 s.

As to `CCC(=O)NCCc1csc(C2CCCN(C(=O)C3CCC3)C2)n1` (centres undefined), the RP-LC retention time stood at 676 s.

In the case of `Cc1nc(N2CCOCC2)c2c(C)c(C(=O)Nc3cccc(Cl)c3C)sc2n1`, the RP-LC retention time was 885 s.

For `CCn1c(C)c(CCC(=O)NCC2CCCO2)c(=O)n2nc(-c3ccccc3)nc12` (centres undefined), the RP-LC retention time came out at 691 s.

As to `COc1ccc(NC(=O)COc2nc(C)nc3ccccc23)c(OC)c1`, the RP-LC retention time was 708 s.

`CCc1nn(C)c(=O)c2cc(S(=O)(=O)NCc3ccc(F)cc3Cl)cn12`: the RP-LC retention time stood at 916 s.

On to `COc1cc(NC(=O)CSc2nccc(N3CCN(c4cccc(OC)c4)CC3)n2)cc(OC)c1`, for which the RP-LC retention time was found to be 667 s.

Compound `O=C(NCCCN1CCCC1=O)c1nc(Nc2ccc(F)cc2)c2ccccc2n1` showed an RP-LC retention time of 636 s.

`CNC(=O)N1CCCC(c2cccc(C(=O)N3CCN(c4ccc(Cl)cc4)CC3)c2)C1` (centres undefined): the RP-LC retention time worked out at 864 s.

`CSc1ccc(CNC(=O)C2CCCN(c3nccc(C)n3)C2)cc1` (centres undefined): the RP-LC retention time is 763 s.

In the case of `O=C(CSc1ncnc2c1[nH]c1ccc(F)cc12)N1CCc2ccccc2C1`, the RP-LC retention time amounted to 891 s.

In turn, `Cc1ccc(CNC(=O)Cn2ccc3ccc(-c4nnc(C)o4)cc32)cc1` gave an RP-LC retention time of 798 s.

For the compound `Cc1ccc(NC(=O)c2cc(C)n3nc(C)cc3n2)cc1`, the RP-LC retention time was found to be 994 s.

With `CCCn1cnc2ccc(-c3noc(-c4ccccc4F)n3)cc21`, the RP-LC retention time amounted to 812 s.

Consider `O=C(NCc1ccc(F)c(Cl)c1)c1nnn(-c2ccccc2)c1-c1ccccn1`, for which the RP-LC retention time worked out at 872 s.

In turn, `Cc1ccc(CNC(=O)CN2C(=O)CSc3cccn3-c3ccccc32)cc1` showed an RP-LC retention time of 1110 s.

Compound `CN1C(=O)c2cc(S(=O)(=O)Nc3ccc(F)c(Cl)c3)ccc2Oc2cccnc21` came in with an RP-LC retention time of 962 s.

`O=C(N[C@@H]1CN(Cc2ccccn2)C[C@H]1CO)C1(c2ccccc2)CC1` gave an RP-LC retention time of 608 s.

`CCNc1cc(N2CCCC(CCC(=O)NCc3ccccc3OC)C2)ncn1` (centres undefined) yielded an RP-LC retention time of 656 s.

For the compound `O=c1n(CCc2ccccc2)nc2c(S(=O)(=O)N3CCCCCC3)cccn12`, the RP-LC retention time is 1000 s.

Turning to `CCC(C)n1c(=O)c2ccccc2n(Cc2nc(-c3ccc(SC)cc3)no2)c1=O` (centres undefined), the RP-LC retention time turned out to be 1260 s.

In turn, `Cc1cc(NC(C)C)n2nc(-c3ccc(C(C)(C)C)cc3)nc2n1` showed an RP-LC retention time of 988 s.

`Fc1cccc(N2CC3(CCNCC3)C2c2ccccc2)c1` (centres undefined) gave an RP-LC retention time of 721 s.

`CN1CCN(CCNC(=O)CCc2cn(-c3ccccc3)nc2-c2ccc3c(c2)OCO3)CC1`: the RP-LC retention time is 639 s.

`CNC(=O)CN(C)C(=O)C1CCCCc2nnc(C(C)C)n21` (centres undefined) showed an RP-LC retention time of 542 s.

For `Cc1cc(C)c(C(=O)N2CCCC(C(=O)NCCC(C)C)C2)[nH]1` (centres undefined), the RP-LC retention time is 788 s.

Consider `O=S(=O)(Nc1ccc(Cn2cncn2)cc1)c1ccc2c(c1)CCCC2`, for which the RP-LC retention time came to 786 s.

`COc1cccc(N2CCN(c3ccnc(SCC(=O)NCc4ccccc4Cl)n3)CC2)c1` returned an RP-LC retention time of 788 s.

As for `O=C(NC1CCCC1)c1ccc2c(c1)nc1n2CCN(C2CCCCC2)C1=O`, the RP-LC retention time worked out at 763 s.

Regarding `CCOC(=O)COc1cc(-c2ccccc2)nc2ccc(NC(=O)Cc3cccs3)cc12`, the RP-LC retention time was 797 s.

The compound `Cc1ccc2nc(-c3ccc(C)c(NC(=O)c4cccs4)c3)[nH]c2c1` had an RP-LC retention time of 681 s.

Consider `COc1cn2c(cc1=O)C(=O)N(CCNC(=O)c1cc(=O)c3ccccc3o1)CC2`, for which the RP-LC retention time was 562 s.

In the case of `CCCCCC(=O)N1CCCC1`, the RP-LC retention time was determined as 805 s.

As to `O=C(CCC1CCN(c2cc(NC3CC3)ncn2)CC1)NCc1ccccn1`, the RP-LC retention time turned out to be 541 s.

`CCOc1cccc(-c2noc(-c3nnn4c3COC(c3ccc(Cl)cc3)C4)n2)c1` (centres undefined) gave an RP-LC retention time of 1320 s.

In turn, `COc1ccccc1OCC(=O)N(Cc1ccc(N(C)C)cc1)C1CCS(=O)(=O)C1` (centres undefined) came in with an RP-LC retention time of 611 s.

As for `CCn1c(C)c(C(=O)C(C)N(Cc2ccc(F)cc2)C(=O)C2CC2)c(C)c1C(=O)OC` (centres undefined), the RP-LC retention time was found to be 1030 s.

For the compound `O=C(Nc1cnc(N2CCOCC2)c(C(=O)O)c1)c1ccc(Br)cc1`, the RP-LC retention time worked out at 715 s.

In turn, `Cc1cc2nn(CC(=O)NCc3ccccc3)c(=O)n2c(Nc2ccc(C)c(C)c2)n1` came in with an RP-LC retention time of 1060 s.

The compound `O=C(c1cncc(Br)c1)N1CCCC(c2nnc(-c3ccccc3)o2)C1` (centres undefined) displayed an RP-LC retention time of 777 s.

Take `CN1C(=O)C(C)(C(=O)NC2CCCCC2)Oc2cccnc21` (centres undefined): the RP-LC retention time is 784 s.

Take `Cc1cccc(N2CCN(C(=O)CN3C(=O)CN(C)C(=O)c4ccccc43)CC2)c1C`: the RP-LC retention time was 812 s.

For the compound `CCOc1ccc(-c2nc(C3CC(=O)N(c4ccc(OC)cc4)C3)no2)cc1OCC` (centres undefined), the RP-LC retention time turned out to be 927 s.
